Earlier results, collected in US20260265270A1 (priority 2023, published 2026).

Experiments:
IL-2 secreted by T cells = conditions: after administration of the inhibitor
[1] = test system: IL-23 secreted by monocytes; conditions: after administration of the inhibitor

In the case of `COc1ccc(C[C@H](NC(=O)[C@H](C)NC(=O)CN2CCOCC2)C(=O)N[C@@H](Cc2ccccc2)C(=O)C2(C)CO2)cc1` (stereo in doubt) [ONX0914], the “IL-2 secreted by T cells” value (IL-2 secreted by T cells) is listed as “decrease significantly” and the “IL-23 secreted by monocytes” value [1] is listed as “decrease significantly”.
